The values that follow come from paper PMC5955586, “Transport of enniatin B and enniatin B1 across the blood-brain barrier and hints for neurotoxic effects in cerebral cells” (PLoS ONE, 2018).

On the set-up of data set [1]: method as in PMID 24239892. Conditions: pigs, cited from earlier work.
In a further data set the test system is PBCEC monolayer. Briefly: Transfer across PBCEC monolayer on Transwell filters (BBB model). Format: in vitro ADME, porcine.
In a further data set the test system is CCF-STTG1 cells. Description: LDH leakage in CCF-STTG1. Format: cell-based, human. Conditions: CCF-STTG1, 0.1 to 2.5 μM, 48 h. The method, then: For measurement of lactate dehydrogenase (LDH) leakage, cell lysates and treatment solutions (serum free medium with respective ENN B/B1 content) after incubation for 48 h were used. The cell lysates were prepared as described for caspase-3 activation assay. To determine the LDH activity, 15 μL of the lysate and 40 μL of the incubation medium were each added to 200 μL substrate buffer (100 mM HEPES, 10 mM sodium pyruvate and 0.21 mM NADH, adjusted to pH 7.0), incubated over the course of 30 min at 37°C and absorption was measured every 2 min at 355 nm in a Infinite M200 PRO microplate reader (Tecan, Crailsheim, Germany).
A general note: LDH in the medium is a marker of cell lysis.

A further data set concerns PBCEC. Briefly: Barrier integrity of PBCEC (TEER and capacitance CCl). Format: cell-based, porcine. As to conditions: for barrier impairing effect: 200 nM; for effect on TEER value / effect on monolayer confluency (capacitance CCl): 1 μM, 48 h. As to the method:
Before starting each experiment, the TEER values and the electrical capacitance of all cell layers were measured via cellular impedance spectroscopy (cellZscope®, nanoAnalytics, Münster, Germany). […] TEER values relate to the constitution of the tight junctions limiting paracellular transfer of compounds. In addition to the TEER, electrical capacitances (CCl) were monitored for 48 h. Cellular phospholipid bilayers act like an electrical capacitor and also contribute to the cellular impedance. Changes of the CCl value give information about the integrity of the cell monolayer. In this experiment, a parallel set up was applied. For each treatment, one triplicate of filters was monitored via cellular impedance spectroscopy over the course of 48 h using a cellZscope® device–here, the basolateral compartment was prepared with 1650 μL serum free medium and the volume in the apical compartment was filled to 760 μL (ratio 1:2.17). Another triplicate for the same incubation conditions was kept in Transwell® filter cell culture multiple well plates (12 well format) over the course of 48 h. In the multiple well plates the ratio between the apical and the basolateral compartment was 1:3, therefore the starting volume in the apical compartment is 500 μL and 1500 μL in the basolateral compartment. Here, samples for quantitation of transfer of enniatins across the barrier were drawn after 1, 2.5, 6.5, 18, 24, 28, 42 and 48 hours in this given ratio i.e. 30 μL apical and 90 μL basolateral. After 48 h, the final TEER values of the filters from the multiple well plate were measured to ensure the stability of the cell layer throughout the experiment. To double check the integrity of the barrier, lucifer yellow (LY, 50 μM), as a paracellular transfer marker, was applied. The amount of LY found in the basolateral compartment after 1 h was measured at λex = 430 nm and λ em = 540 nm.

On the set-up of data set [2]: method as in PMID 25757886. Conditions: ex vivo human skin; cited from earlier work.
On the set-up of data set [3]: method as in PMID 21622627. As to conditions: liver microsomes human, dog and rat; cited from earlier work.

For orientation: Tmax means the time at which the peak concentration occurs. For the compound `CC[C@H](C)[C@H]1C(=O)O[C@H](C(C)C)C(=O)N(C)[C@@H](C(C)C)C(=O)O[C@H](C(C)C)C(=O)N(C)[C@@H](C(C)C)C(=O)O[C@H](C(C)C)C(=O)N1C` [ENN B1, enniatin B1], in data set [1] (oral), the Tmax is 14.4 min and the ka was 4.66 h⁻¹. Moreover, the oral bioavailability entry in data set [1] was “up to 91%”. Moreover, the “metabolites by high resolution mass spectrometry screening” value in the data set on PBCEC monolayer is recorded as “no metabolites were detected”. Further, the LDH release entry in the data set on CCF-STTG1 cells is reported as “no significant increase of LDH release”. Further, in the data set on PBCEC, the barrier impairing effect result is reported as “did not have any barrier impairing effect”, the “effect on TEER value” is reported as “does not lead to a breakdown of the TEER value” and the “effect on monolayer confluency (capacitance CCl)” value is “does not impair PBCEC confluency”.
As for `CC(C)[C@H]1C(=O)O[C@H](C(C)C)C(=O)N(C)[C@@H](C(C)C)C(=O)O[C@H](C(C)C)C(=O)N(C)[C@@H](C(C)C)C(=O)O[C@H](C(C)C)C(=O)N1C` [ENN B, enniatin B], the “permeation kp,v” value in data set [2] is 0.00262 ×10⁻⁶ cm/s. In data set [3], the metabolites formed result is “several phase I metabolites”. Moreover, the LDH release entry with CCF-STTG1 cells was “no significant increase of LDH release”. Moreover, in the data set with PBCEC, the barrier impairing effect result is recorded as “did not have any barrier impairing effect”, the “effect on TEER value” is given as “does not lead to a breakdown of the TEER value” and the “effect on monolayer confluency (capacitance CCl)” value is given as “does not impair PBCEC confluency”.
